The text below walks through data of patent US20130197032A1, “[…] COMPOUNDS FOR THE TREATMENT OF NEUROLOGICAL AND […] DISORDERS” (A. CARLSSON RESEARCH AB, priority 2010, published 2013).

In series [1] the target is human dopamine transporter (DAT) (Homo sapiens, UniProt Q01959). Description: Equilibrium radioligand binding to DAT. As to conditions: displacement of 125I-RTI-55.
Description: (§1) Cells were not centrifuged following cell scraping, but were collected directly into the ice-cold nitrogen cavitation chamber.
(§2) Membranes were prepared as described above. […] Binding reactions were terminated by filtration through UniFilter-96GF/B filters (from Perkin-Elmer, presoaked with 0.1% polyethylenimine for 1 h) with a Brandel 96-well harvester. Filters were washed with ice-cold wash buffer (50 mM Tris, 120 mM NaCl, pH7.4; 500 ml/plate) and then allowed to air-dry for 30 min. 50 μl MacrosScint-20 scintillation cocktail was added to each well, the plates were sealed, and then counted on a Top-Count (Packard).
The next series concerns the target T1, human 5-HT1D receptor (Homo sapiens, UniProt P28221).
T1 construct: expressed in transfected cells; host or cells: NIH/3T3
Description: R-SAT assay 5-HT1D. The class given is cell-based. As to conditions: Table 3, 5-HT1D; for Eff (%): percent response of reference 5-CT.

Another series concerns habituated rats. Description: Locomotion in habituated rats, photocell activity boxes. As to conditions: 5-35 minutes after injection; for locomotion in habituated rats: 6.25, 12.5, 50, 100, 200 and 400 μmol/kg sc, vs Control; for locomotion, accumulated unrepeated beam breaks, means±SEM of pooled groups: habituated rats, 50 μmol/kg sc, 30 minutes period, controls 23±6.
The next series deals with T2, human alpha1B receptor (Homo sapiens, UniProt P35368).
T2 construct: expressed in transfected cells; host or cells: NIH/3T3 cells, transient transfection, pSI vector
T2 sequence (P35368 1-520): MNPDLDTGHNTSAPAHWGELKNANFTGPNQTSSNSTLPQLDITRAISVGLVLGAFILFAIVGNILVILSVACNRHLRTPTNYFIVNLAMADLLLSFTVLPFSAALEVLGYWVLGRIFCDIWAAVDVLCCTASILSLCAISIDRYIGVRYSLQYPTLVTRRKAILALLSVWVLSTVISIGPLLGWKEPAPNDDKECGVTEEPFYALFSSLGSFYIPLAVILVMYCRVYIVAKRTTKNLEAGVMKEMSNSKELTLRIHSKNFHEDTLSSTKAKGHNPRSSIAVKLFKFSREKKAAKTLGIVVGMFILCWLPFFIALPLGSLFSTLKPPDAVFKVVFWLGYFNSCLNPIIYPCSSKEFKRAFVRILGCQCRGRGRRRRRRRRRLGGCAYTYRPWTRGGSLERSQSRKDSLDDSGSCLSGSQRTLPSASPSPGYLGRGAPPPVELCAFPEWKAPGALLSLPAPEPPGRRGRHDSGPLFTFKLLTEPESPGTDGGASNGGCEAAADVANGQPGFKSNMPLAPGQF
Description: R-SAT assay α1B. As to conditions: Table 3, α1B; percent response of reference Phenylephrine. The class given is cell-based.

The target in the next series is T3, human alpha1A receptor (Homo sapiens, UniProt P35348).
T3 construct: expressed in transfected cells; host or cells: NIH/3T3 cells, transient transfection, pSI vector
T3 sequence (P35348 1-466): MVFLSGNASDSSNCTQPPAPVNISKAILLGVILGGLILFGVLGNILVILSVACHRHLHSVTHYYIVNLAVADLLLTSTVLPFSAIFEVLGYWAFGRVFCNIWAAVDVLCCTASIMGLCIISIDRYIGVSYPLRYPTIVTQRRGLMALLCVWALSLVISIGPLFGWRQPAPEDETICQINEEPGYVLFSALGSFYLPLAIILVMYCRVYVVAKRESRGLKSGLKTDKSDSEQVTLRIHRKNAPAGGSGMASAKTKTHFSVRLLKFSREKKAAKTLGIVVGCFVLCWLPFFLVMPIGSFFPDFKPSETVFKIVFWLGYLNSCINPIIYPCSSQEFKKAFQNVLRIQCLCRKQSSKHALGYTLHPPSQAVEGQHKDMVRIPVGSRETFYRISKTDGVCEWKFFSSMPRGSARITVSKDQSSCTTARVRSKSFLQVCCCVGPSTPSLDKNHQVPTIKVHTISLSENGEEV
Description: R-SAT assay α1A. It counts as cell-based. As to conditions: Table 3, α1A; percent response of reference Phenylephrine.

Another series addresses T4, human alpha2B receptor (Homo sapiens, UniProt P18089).
T4 construct: expressed in transfected cells; host or cells: NIH/3T3 cells, transient transfection, pSI vector
Description: R-SAT assay α2B. It counts as cell-based. As to conditions: Table 3, α2B; percent response of reference UK 14,306.

The target in another series is human 5-HT2A receptors (Homo sapiens, UniProt P28223). Description: R-SAT functional assay at 5-HT2A. The class given is cell-based. Further details: expressed in transfected cells; host or cells: NIH-3T3. As to conditions: for R-SAT Eff(%): percent response of reference ligand 5-CT; for Eff (%): percent response of reference 5-CT; for potency at 5-HT2A receptors compared with D2 receptors: comparison of Table 1 and Table 2.
Chain of human 5-HT2A receptors (P28223 whole entry): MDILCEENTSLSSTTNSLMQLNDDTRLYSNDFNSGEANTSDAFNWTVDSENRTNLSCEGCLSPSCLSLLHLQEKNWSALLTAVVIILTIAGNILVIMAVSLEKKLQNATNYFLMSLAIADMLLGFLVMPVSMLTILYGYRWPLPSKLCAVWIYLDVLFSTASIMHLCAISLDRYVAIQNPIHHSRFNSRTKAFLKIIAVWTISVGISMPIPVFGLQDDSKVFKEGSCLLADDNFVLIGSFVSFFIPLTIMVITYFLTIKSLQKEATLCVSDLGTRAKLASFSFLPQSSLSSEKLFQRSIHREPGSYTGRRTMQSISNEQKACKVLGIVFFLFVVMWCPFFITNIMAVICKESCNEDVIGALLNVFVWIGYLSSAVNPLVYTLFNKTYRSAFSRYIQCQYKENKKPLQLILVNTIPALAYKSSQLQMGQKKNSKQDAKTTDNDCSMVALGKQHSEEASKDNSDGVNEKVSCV

For series [2], the target named is T5, D2 receptors (Homo sapiens, UniProt P14416). Description: GTPγS binding assay at D2. Also on record: expressed in transfected cells. The class given is biochemical. A general note: Binding of GTPγS marks nucleotide exchange on a G protein.
T5 sequence (P14416 1-414 isoform P14416-2): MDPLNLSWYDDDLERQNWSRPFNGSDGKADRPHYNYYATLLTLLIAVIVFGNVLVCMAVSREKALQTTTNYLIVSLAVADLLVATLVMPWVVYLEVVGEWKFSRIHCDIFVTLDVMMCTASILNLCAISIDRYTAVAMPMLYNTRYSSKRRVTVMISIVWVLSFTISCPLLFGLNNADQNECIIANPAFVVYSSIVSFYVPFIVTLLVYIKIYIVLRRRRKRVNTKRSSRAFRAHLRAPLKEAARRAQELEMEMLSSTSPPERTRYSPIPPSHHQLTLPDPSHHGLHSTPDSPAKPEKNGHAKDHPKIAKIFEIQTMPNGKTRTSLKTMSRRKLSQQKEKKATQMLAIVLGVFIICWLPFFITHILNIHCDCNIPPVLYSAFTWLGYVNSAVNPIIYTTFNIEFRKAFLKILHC
Description: as §1
50 μl/well Wheat-Germ Agglutinin SPA beads (Perkin Elmer, Shelton, Conn.) were added to the plates and the plates incubated for 1 hour. The plates were then centrifuged at 1,000×g for 10 minutes and read on a Top Count NXT (Perkin Elmer, Shelton, Conn.).
To relate the results observed in R-SAT™ to a more conventional assay system, these ligands were also tested for the ability to induce GTPγS binding through D2 receptors.
The target of series [3] is T5, D2 receptors. Description: BRET2 beta-arrestin-2 recruitment assay at D2. It counts as cell-based. Also on record: expressed in transfected cells; host or cells: HEK-293T. As to conditions: percent response of reference ligand dopamine; mean ± SEM. (In general: Bioluminescence resonance energy transfer reports proximity on the nanometre scale.)
Description: BRET-2 signals were measured using the multiplate reader Mithras 940LB (Berthold Technologies, Bad Wildbad, Germany) and were calculated as the ratio between the Renilla luciferase emission and the GFP2 emission corrected by the background emissions of non-transfected cells.
Each curve is representative of two to three independent experiments.
In the next series the target is human 5-HT1B receptor (Homo sapiens, UniProt P28222). Description: R-SAT assay 5-HT1B. It counts as cell-based. As to conditions: Table 3, 5-HT1B; for Eff (%): percent response of reference 5-CT.
Chain of human 5-HT1B receptor (P28222 whole entry): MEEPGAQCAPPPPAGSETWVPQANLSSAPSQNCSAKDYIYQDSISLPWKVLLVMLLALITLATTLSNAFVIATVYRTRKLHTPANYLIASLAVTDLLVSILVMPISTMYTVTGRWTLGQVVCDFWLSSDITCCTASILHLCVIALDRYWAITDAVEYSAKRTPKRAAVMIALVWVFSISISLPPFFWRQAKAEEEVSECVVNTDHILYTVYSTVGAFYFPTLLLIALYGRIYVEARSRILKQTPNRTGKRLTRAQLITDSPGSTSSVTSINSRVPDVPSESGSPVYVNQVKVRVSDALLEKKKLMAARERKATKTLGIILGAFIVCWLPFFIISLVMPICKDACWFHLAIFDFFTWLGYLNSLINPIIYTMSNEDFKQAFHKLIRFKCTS
Series [4] has as its target human serotonin transporter (SERT) (Homo sapiens, UniProt P31645). As to conditions: displacement of 3H-Imipramine.
Description: as §1, §2
A further series addresses T6, human M5 receptor (Homo sapiens, UniProt P08912).
T6 construct: expressed in transfected cells; host or cells: NIH/3T3 cells, transient transfection, pSI vector
Description: R-SAT assay M5. It counts as cell-based. As to conditions: Table 3, M5; percent response of reference Carbachol.

The target of series [5] is T5, D2 receptors. Description: Dissociation rate of dopamine from D2 receptors (off-rate assay). It counts as binding. As to conditions: data not shown.
The target in a further series is 5-HT2B receptors (Homo sapiens, UniProt P41595). Description: PI hydrolysis assay on 5-HT2B receptors.
Chain of 5-HT2B receptors (P41595 whole entry): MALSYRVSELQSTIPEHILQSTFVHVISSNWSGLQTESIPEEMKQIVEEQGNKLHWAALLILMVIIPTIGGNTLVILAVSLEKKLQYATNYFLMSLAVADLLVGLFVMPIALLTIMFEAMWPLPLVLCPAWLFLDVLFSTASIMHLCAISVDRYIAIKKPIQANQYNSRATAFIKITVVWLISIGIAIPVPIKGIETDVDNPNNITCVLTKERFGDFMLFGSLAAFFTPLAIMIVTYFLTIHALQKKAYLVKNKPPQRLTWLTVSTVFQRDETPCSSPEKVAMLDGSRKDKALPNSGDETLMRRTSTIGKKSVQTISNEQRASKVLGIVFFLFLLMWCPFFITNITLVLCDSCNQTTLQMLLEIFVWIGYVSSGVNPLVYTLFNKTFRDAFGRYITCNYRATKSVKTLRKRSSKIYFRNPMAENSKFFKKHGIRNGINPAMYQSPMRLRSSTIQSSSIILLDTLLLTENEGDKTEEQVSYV
For series [6] the following is noted: clinical observation; cited from earlier work.
The next series addresses T7, human 5-HT7 receptor (Homo sapiens, UniProt P34969).
T7 construct: expressed in transfected cells; host or cells: NIH/3T3
Description: R-SAT assay 5-HT7. The class given is cell-based. As to conditions: Table 3, 5-HT7; percent response of reference 5-CT.

The next series deals with dopamine D2/D3 receptors. As to conditions: read-out: Ki, affinity for dopamine D2/D3 receptors; in vitro binding studies, background; cited from earlier work.
A further series addresses human 5-HT6 receptor (Homo sapiens, UniProt P50406). Description: R-SAT assay 5-HT6. It counts as cell-based. As to conditions: Table 3, 5-HT6.
[7] abbreviates: Table 1, negative logarithm of EC50 in molar (M), NIH3T3 cells, mean ± SEM, read-out: R-SAT pEC50 (converted).
Setting [8] is: Table 3, 5-HT2A, negative logarithm of EC50 in molar, read-out: pEC50 (converted).
[9] abbreviates: negative logarithm of EC50 in molar, read-out: pEC50 (converted).

Read-outs that look alike come from different tables or passages of the source.

T1 sequence (P28221 whole entry): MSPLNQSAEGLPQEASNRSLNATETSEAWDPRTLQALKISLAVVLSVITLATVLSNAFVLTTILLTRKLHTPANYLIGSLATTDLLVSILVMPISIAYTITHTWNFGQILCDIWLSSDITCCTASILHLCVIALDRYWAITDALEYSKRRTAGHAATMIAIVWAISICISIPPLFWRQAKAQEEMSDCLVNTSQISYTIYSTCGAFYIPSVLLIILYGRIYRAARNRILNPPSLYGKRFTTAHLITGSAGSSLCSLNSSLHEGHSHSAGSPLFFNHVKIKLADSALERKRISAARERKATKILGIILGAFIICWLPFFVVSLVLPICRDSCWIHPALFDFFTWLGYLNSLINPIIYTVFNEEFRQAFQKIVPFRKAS
Chain of human serotonin transporter (SERT) (P31645 whole entry): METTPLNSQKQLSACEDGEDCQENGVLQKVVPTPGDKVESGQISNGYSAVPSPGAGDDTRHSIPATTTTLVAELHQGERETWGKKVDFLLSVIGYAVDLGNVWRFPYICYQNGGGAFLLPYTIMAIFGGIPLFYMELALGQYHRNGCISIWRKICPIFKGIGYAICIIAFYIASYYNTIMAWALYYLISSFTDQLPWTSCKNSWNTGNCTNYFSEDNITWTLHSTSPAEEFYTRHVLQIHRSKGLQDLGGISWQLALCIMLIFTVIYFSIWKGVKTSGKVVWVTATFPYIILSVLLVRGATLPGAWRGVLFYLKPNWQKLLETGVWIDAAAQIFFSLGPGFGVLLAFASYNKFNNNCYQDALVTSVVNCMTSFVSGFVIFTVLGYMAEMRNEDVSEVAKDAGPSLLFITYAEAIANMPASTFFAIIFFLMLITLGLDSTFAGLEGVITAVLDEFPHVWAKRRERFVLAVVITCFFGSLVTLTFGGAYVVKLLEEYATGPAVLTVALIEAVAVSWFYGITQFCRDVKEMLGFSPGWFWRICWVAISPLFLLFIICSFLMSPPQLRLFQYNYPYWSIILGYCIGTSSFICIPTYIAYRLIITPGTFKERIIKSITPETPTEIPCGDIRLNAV
Chain of human 5-HT6 receptor (P50406 whole entry): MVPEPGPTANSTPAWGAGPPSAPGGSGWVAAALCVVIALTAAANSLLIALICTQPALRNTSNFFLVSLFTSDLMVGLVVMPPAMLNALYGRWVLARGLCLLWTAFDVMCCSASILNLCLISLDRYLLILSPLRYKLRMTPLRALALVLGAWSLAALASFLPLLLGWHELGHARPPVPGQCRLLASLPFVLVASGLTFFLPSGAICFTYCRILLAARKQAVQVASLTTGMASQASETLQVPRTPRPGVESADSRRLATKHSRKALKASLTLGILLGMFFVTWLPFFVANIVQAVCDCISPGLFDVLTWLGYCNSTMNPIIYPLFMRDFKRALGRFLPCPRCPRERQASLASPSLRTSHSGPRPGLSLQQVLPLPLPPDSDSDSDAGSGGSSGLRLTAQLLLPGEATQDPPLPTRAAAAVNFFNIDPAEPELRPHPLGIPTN
T4 sequence (P18089 whole entry): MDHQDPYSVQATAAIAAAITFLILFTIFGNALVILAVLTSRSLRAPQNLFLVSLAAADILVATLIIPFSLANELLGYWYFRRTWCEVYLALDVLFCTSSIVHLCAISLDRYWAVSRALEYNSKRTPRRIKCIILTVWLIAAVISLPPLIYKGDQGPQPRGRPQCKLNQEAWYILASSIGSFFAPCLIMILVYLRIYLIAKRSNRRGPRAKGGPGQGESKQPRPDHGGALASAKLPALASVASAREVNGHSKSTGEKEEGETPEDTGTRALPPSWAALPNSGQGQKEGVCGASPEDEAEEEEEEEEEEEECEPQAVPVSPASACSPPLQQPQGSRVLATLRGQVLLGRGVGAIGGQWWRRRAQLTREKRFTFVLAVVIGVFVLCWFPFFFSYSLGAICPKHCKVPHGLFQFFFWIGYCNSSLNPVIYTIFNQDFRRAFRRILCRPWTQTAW
Chain of human dopamine transporter (DAT) (Q01959 whole entry): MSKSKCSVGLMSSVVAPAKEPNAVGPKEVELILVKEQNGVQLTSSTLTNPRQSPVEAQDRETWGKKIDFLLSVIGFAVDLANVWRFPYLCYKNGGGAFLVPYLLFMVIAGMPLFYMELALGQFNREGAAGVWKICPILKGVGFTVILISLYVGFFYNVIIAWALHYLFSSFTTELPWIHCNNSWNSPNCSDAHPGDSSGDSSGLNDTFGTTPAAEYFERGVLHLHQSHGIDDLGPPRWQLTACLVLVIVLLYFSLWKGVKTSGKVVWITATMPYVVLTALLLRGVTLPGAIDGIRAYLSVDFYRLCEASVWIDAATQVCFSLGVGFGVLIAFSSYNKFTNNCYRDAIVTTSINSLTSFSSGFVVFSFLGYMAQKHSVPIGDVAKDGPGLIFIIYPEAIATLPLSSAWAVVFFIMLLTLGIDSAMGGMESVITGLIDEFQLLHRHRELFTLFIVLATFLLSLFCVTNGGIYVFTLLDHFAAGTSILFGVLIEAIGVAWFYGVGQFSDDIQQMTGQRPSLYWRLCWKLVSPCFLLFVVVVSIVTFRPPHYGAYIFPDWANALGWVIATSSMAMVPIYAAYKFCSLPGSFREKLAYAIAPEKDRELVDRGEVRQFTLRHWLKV
T6 sequence (P08912 whole entry): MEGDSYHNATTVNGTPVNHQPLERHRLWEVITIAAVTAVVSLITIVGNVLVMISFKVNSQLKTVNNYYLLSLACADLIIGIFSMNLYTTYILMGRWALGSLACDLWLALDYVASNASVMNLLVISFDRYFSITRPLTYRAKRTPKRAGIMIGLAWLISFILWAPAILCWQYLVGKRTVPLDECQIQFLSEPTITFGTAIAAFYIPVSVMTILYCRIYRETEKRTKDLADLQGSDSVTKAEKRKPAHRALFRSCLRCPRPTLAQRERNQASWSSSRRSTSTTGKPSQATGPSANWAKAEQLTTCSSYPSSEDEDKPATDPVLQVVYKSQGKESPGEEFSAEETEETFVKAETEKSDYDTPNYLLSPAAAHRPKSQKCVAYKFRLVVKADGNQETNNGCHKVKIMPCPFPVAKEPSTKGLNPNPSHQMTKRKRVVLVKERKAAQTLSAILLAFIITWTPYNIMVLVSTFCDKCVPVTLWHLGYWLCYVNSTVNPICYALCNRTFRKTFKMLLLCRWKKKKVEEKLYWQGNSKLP
Description for 5-HT2B receptors: After lysing the cells with 50 μl of 0.1M formic acid, 20 μl each cell lysate was mixed with 80 μl (1 mg) RNA Binding YSi-SPA beads (GE Healthcare, Chalfont St. Giles, UK) on PICO plates (PerkinElmer) and counted on a TopCount (Packard).
Description for habituated rats: Motor activity experiments in both active and habituated rats were performed on male Sprague-Dawley rats (Charles River, Germany) weighing 280-320 g. Prior to testing, rats were housed in groups of four or five in ventilated Macrolon type IV cages for approximately one week.
Rats were housed in a normal daylight cycle and the experiments were carried out during daytime. […] During the following 5 minutes test drugs were injected, after which the rats were returned to the boxes for another 60 minutes. Five by five rows of photocell beams at floor level allowed a computer based-system to register horizontal activity. Motor activity is presented as accumulated number of unrepeated beam breaks, i.e. several consecutive breakings of one beam is counted as one beam break. The software was set to register behavior from the rats' first introduction into the arena until it was finally removed from the box, i.e. for 110 or 130 minutes.
Locomotion was measured as accumulated unrepeated beam breaks. […] This was followed by 60 minutes of registration. Data are calculated from a 30 minutes period, 5-35 minutes after injection, and plotted as means and SEM. […] Data were calculated from a 30 minutes period, 5-35 minutes after injection.
The effect of haloperidol on the locomotor stimulation was also studied in habituated rats (see FIG. 10). Locomotion was measured as accumulated unrepeated beam breaks. Rats were given haloperidol (0.05, 0.2, 0.5 mg/kg, sc) and were then allowed to habituate for 65 minutes. […] Data are calculated from a 30 minutes period, taken 5-35 minutes after injection, and plotted as means and SEM. N=4-5.

Regarding `CCCN1CCC[C@H](c2cccc(S(C)(=O)=O)c2)C1` [(+)-OSU6162, (3R)-3-[3-(methylsulfonyl)phenyl]-1-propylpiperidine], the results for the Inh % in [1] and in [4] were 5% and 38%, respectively. Besides, the “Eff (%)” value amounted to 28% at human 5-HT1D receptor; 10% on human alpha1B receptor; 22% at human alpha1A receptor; 8% at human alpha2B receptor; 139% on human 5-HT2A receptors (Table 3, 5-HT2A); 20% at human 5-HT1B receptor. Moreover, the “locomotion in habituated rats” value in the series with habituated rats was “significant locomotor stimulation was observed for all doses but the two lowest”. The “locomotion, accumulated unrepeated beam breaks, means±SEM of pooled groups” value in the series with habituated rats was 95±12 unrepeated beam breaks. Besides, the EC50 on human 5-HT2A receptors (setting [7]) and at human 5-HT2A receptors (setting [8]) was 1.58e-06 M throughout. Further, the “R-SAT Eff(%)” value on human 5-HT2A receptors (Table 1, mean ± SEM) stood at 139 ± 14%. Moreover, the “potency at 5-HT2A receptors compared with D2 receptors” value at human 5-HT2A receptors is recorded as “more potent at 5-HT2A than D2 receptors”. Also, the Emax at 50 µM at D2 receptors [2] (read-out: GTPγS Eff %, response at 50 μM) amounted to 36%. Also, the “BRET2 Eff %” value at D2 receptors [3] turned out to be 0 ± 0%.

Regarding `CCCN1CCC[C@@H](c2cccc(S(C)(=O)=O)c2)C1` [(−)-OSU6162, (3S)-3-[3-(methylsulfonyl)phenyl]-1-propylpiperidine], the “Eff (%)” value on human M5 receptor was −5%; at human 5-HT1D receptor, 132%; on human alpha1B receptor it was −1%; on human alpha1A receptor, 15%; on human alpha2B receptor, 13%; at human 5-HT2A receptors (Table 3, 5-HT2A), 113%. For the same compound, the figures for the “Eff (%)” value on human 5-HT7 receptor, at human 5-HT1B receptor and at human 5-HT6 receptor (percent response of reference 5-CT) were 7%, 75% and 52%, respectively. Also, the Inh % in [1] stood at 6%; in series [4] it was 26%. Moreover, at D2 receptors [5], the “effect on dissociation rate of dopamine from D2 receptors” value is given as “did not significantly alter”. In addition, the EC50 at human 5-HT1D receptor (negative logarithm of EC50 in molar) is 5010 nM; on 5-HT2B receptors, 631 nM; on human 5-HT2A receptors (setting [7]), 6.31e-07 M; at human 5-HT2A receptors (setting [8]), 6.31e-07 M; on D2 receptors [2] (negative logarithm of EC50 in molar, HEK293T membranes, mean ± SEM, read-out: GTPγS pEC50 (converted)), 501 nM; on human 5-HT1B receptor (setting [9]), 2510 nM. Besides, the EC50 on human 5-HT6 receptor (setting [9]) was greater than 10000 nM. Moreover, the “efficacy in PI hydrolysis assays on 5-HT2B receptors” value on 5-HT2B receptors (data not shown) was 24%. In the series on habituated rats, the “locomotion in habituated rats” value is given as “significant locomotor stimulation was observed for all doses but the lowest”. Besides, the “locomotion, accumulated unrepeated beam breaks, means±SEM of pooled groups” value in the series on habituated rats turned out to be 129±11 unrepeated beam breaks. The hallucinogenic activity entry in series [6] is given as “no hallucinogenic activity”. For the same compound, the “R-SAT Eff(%)” value on human 5-HT2A receptors (Table 1, mean ± SEM) is listed as 113 ± 18%. The “potency at 5-HT2A receptors compared with D2 receptors” value on human 5-HT2A receptors is “equipotent at D2 and 5-HT2A receptors”. The “GTPγS Eff %” value at D2 receptors [2] (percent response of reference ligand dopamine, mean ± SEM) is 37 ± 9%. Moreover, the Ki at dopamine D2/D3 receptors was 447 nM. The “BRET2 Eff %” value at D2 receptors [3] is recorded as 0 ± 0%.
